The values below come from patent publication US5760036A, “Aminediol protease inhibitors” (E. R. Squibb & Sons, Inc., priority 1995, dated 1998).

One experiment deals with T1, HIV protease (Human immunodeficiency virus type 1 group M subtype B, UniProt P04585).
T1 construct: and purified protease
Description: HIV Protease Assay. It counts as biochemical. Particulars: pH 5.5, 10 μM inhibitor, 4% DMSO, 450 μM substrate, pH 5.5, 30 minutes at 37° C., RP-HPLC; read-out: HIV Protease % Inhibition at 10 μM. In short, it runs like this:
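At a single final concentration of 10 μM (4% DMSO), inhibitors were added to a 30-minute, 37° C reaction of purified enzyme with 450 μM H2N-Val-Ser-Gln-Asn-(β-naphthyl-alanine)-Pro-Val-Ile-OH at pH 5.5 (sodium acetate, BSA). Hydrolysis was quantified by reverse-phase HPLC with 220 nm detection after acid quench.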

Experiment [1] deals with RF strain of HIV (CEM-SS cells). Put plainly: Cell Culture Anti-HIV Activity (cell viability, formazan). It counts as cell-based. Particulars: Human immunodeficiency virus 1, CEM-SS, 144 h, CEM-SS cells, RF strain of HIV, multiplicity of infection 0.04, 6 days at 37° C., 450 nm; read-out: HIV (CEM Cells) IC50. A digest of the protocol:
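Half-log compound dilutions added to CEM-SS cells (5000/well) carrying HIV RF (MOI 0.04), 6 days, 37° C. Cell protection measured as formazan from tetrazolium, A450. IC50: drug level restoring infected-cell formazan to 50% of the uninfected untreated control.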

Counter-ions that a name gives are not always drawn. Some results are limits rather than exact numbers.

As for `CC(C)[C@H](NC(=O)CC(N)c1ccccc1)C(=O)N[C@@H](Cc1ccccc1)[C@H](O)CNC[C@@H](O)[C@H](Cc1ccccc1)NC(=O)OC(C)(C)C` (stereo partly drawn) [Compound 86, [S-[1R*,2S*(2S*,3R*)]-N^2 (3-Amino-1-oxo-3-phenylpropyl)-N-[3-[[3-[[(1,1-dimethylethoxy)carbonyl]amino]-2-hydroxy-4-phenylbutyl]amino-[-2-hydroxy-1-(-phenylmethyl)propyl]-L-valinamide, fumarate (2:3) salt], the inhibition at 10 µM on HIV protease turned out to be 78%. Also, the IC50 in experiment [1] came to 1800 nM.

Turning to `CC(C)(C)OC(=O)N[C@@H](Cc1ccccc1)[C@H](O)CNC[C@@H](O)[C@H](Cc1ccccc1)NC(=O)C1(NC(=O)OCc2ccccc2)CCCC1` [Compound 87, [1S-[1R*,2S*(2S*,3R*)]]-[2-Hydroxy3-[[2-hydroxy-3-[[[1-[[(phenylmethoxy)-carbonyl]amino]cycloyentyl]carbonyl]amino]-4-phenylbutyl]-amino]-1-(phenylmethyl)propoyl]carbamic acid, 1,1-dimethylethyl ester], the inhibition at 10 µM on HIV protease stood at 92%. For the same compound, the IC50 in experiment [1] was more than 880 nM.

Take `CC(C)(C)OC(=O)N[C@@H](Cc1ccccc1)[C@H](O)CNC[C@@H](O)[C@H](Cc1ccccc1)NC(=O)[C@@H](NC(=O)OCc1ccccc1)C(C)(C)C` [Compound 88, [1S-[1R*-[1R*,2S*(2S*,3R*)]]]-2,2-Dimethyl-1-[[[3-[[3-[[(1,1-Dimethylethoxcy)-carbonylamino]-2-hydroxy-4-phenylbutyl]amino]-2-hydroxy-1-(phenylmethyl),propyl]amino]-carbonyl]propoyl]carbamic acid, phenylmethyl ester]: at HIV protease, the inhibition at 10 µM was 100%. Further, the IC50 in experiment [1] was 30 nM.

In the case of `CC(C)[C@H](NC(=O)[C@@H](N)Cc1ccccc1)C(=O)N[C@@H](Cc1ccccc1)[C@H](O)CNC[C@@H](O)[C@H](Cc1ccccc1)NC(=O)[C@@H](NC(=O)[C@@H](N)Cc1ccccc1)C(C)C` [Compound 92, [S-(1R*,2S*)]-N,N'-[Iminobis[2-hydroxy-1-(phenylmethyl)-3,1-propanediyl]bis[N^2-(L-phenylalanyl)-L-valinamide[,trihydrochloride], the inhibition at 10 µM on HIV protease was determined as 100%. In addition, the IC50 in experiment [1] is 39000 nM.

In the case of `CC(C)[C@H](NC(=O)OCc1nc2ccccc2[nH]1)C(=O)N[C@@H](Cc1ccccc1)[C@H](O)CNC[C@@H](O)[C@H](Cc1ccccc1)NC(=O)OC(C)(C)C` [Compound 93, [S-[1R*,2S*(2S*,3R*)[[-N-[3-[[3-[[(1,1-Dimethylethoxy)carbonyl]amino]-2-hydroxy-4-phenylbutyl]amino]-2-hydroxy-1-(phenylmethyl)propyl]-N2 -]-(1H-benzimidazol-2-ylmethoxy)carbonyl]-L-valinamide], on HIV protease, the inhibition at 10 µM came to 100%. Further, in experiment [1], the IC50 was 180 nM.

`CC(C)[C@H](NC(=O)[C@H](C)N)C(=O)N[C@@H](Cc1ccccc1)[C@H](O)CNC[C@@H](O)[C@H](Cc1ccccc1)NC(=O)OC(C)(C)C` [Compound 96, [S-[1R*,2S*(2S*,3R*)]-N-]3-[[3-[[(1,1-Dimethylethoxy)carbonyl]amino]-2-hydroxy-4-phenylbutyl]amino]-2-hydroxy-1(phenylmethyl)propyl]-N^2-(L-alanyl)-L-valinamide, fumarate salt]: the inhibition at 10 µM at HIV protease is 100%. In experiment [1], the IC50 was more than 7600 nM.

Consider `CC(C)C[C@H](N)C(=O)N[C@H](C(=O)N[C@@H](Cc1ccccc1)[C@H](O)CNC[C@@H](O)[C@H](Cc1ccccc1)NC(=O)OC(C)(C)C)C(C)C` [Compound 98, [S-[1R*,2S*(2S*,3R*)]-N-[3-[[3-[[(1,1-Dimethylethoxy)carbonyl]amino]-2-hydroxy-4-phenylbutyl]amino]-2-hydroxy-1(phenylmethyl)propyl]-N^2-(L-leucyl)-L-valinamide, fumarate salt], for which, at HIV protease, the inhibition at 10 µM amounted to 100%. Besides, the IC50 in experiment [1] came out at 1300 nM.

As to `CC(C)[C@H](NC(=O)CNC(=O)OC(C)(C)C)C(=O)N[C@@H](Cc1ccccc1)[C@H](O)CNC[C@@H](O)[C@H](Cc1ccccc1)NC(=O)[C@@H](NC(=O)CNC(=O)OC(C)(C)C)C(C)C` [Compound 99, [S-(1R*,2S*)]-N,N'-[Iminobis[2-hydroxy-1-(phenylmethyl)-3,1-propanediyl]]bis [N^2-[[[1,1-dimethylethoxy)carbonyl]-amino]acetyl]-L-valinamide]], the inhibition at 10 µM at HIV protease was determined as 99%. In addition, the IC50 in experiment [1] was more than 100000 nM.

`C[C@@H](O)[C@H](NC(=O)OCc1ccccc1)C(=O)N[C@@H](Cc1ccccc1)[C@H](O)CNC[C@@H](O)[C@H](Cc1ccccc1)NC(=O)OC(C)(C)C` [Compound 100, [S-[1R*,2S*(2S*,3R*)]-N-[3-[[3-[[(1,1-Dimethylethoxy)carbonyl]amino]-2-hydroxy-4-phenylbutyl]amino]-2-hydroxy-1-(phenylmethyl)-propyl]-N^2 [(phenylmethoxy)carbonyl]-L-threoninamide]: at HIV protease, the inhibition at 10 µM stood at 99%. For the same compound, the IC50 in experiment [1] was found to be 230 nM.

Regarding `CC(C)[C@H](NC(=O)c1nc2ccccc2[nH]1)C(=O)N[C@@H](Cc1ccccc1)[C@H](O)CNC[C@@H](O)[C@H](Cc1ccccc1)NC(=O)OC(C)(C)C` [Compound 101, [S-[1R*,2S*(2S*,3R*)]-N-[3-[[3-[[(1,1-Dimethylethoxy)carbonyl]amino]-2-hydroxy-4-phenylbutyl]amino]-2-hydroxy-1-(phenylmethyl)propyl]-N^2-[(1H-benzimidazol-2-yl)-carbonyl]-L-valinamide]], the inhibition at 10 µM on HIV protease was 99%. In addition, the IC50 in experiment [1] came to 140 nM.

Consider `CC(C)[C@H](NC(=O)CCc1nc2ccccc2[nH]1)C(=O)N[C@@H](Cc1ccccc1)[C@H](O)CNC[C@@H](O)[C@H](Cc1ccccc1)NC(=O)OC(C)(C)C` [Compound 103, [S-[1R*,2S*(2S*,3R*)]-N^2-[3-(1H-Benzimidazol-2-yl)-1-oxo-propyl]-N-[3-[[3-[[(1,1-di-methylethoxy)carbonyl]amino-4-phenylbutyl]amino]-2-hydroxy-1-(phenylmethyl)propyl]-L-valinamide], for which, on HIV protease, the inhibition at 10 µM came to 98%. Moreover, the IC50 in experiment [1] was found to be 1700 nM.

For the compound `CC(C)[C@H](NC(=O)OCc1ccccc1)C(=O)N[C@@H](Cc1ccccc1)[C@H](O)CNC[C@@H](O)[C@H](Cc1ccccc1)NC(=O)[C@H](CC(N)=O)NC(=O)OCc1ccccc1` [Compound 112, [S-[1R*,2S*(2S*,3R*)]]-N-[2-Hydroxy-3-[[2-hydroxy-4-phenyl-3-[[N-[(phenyl-methoxy)carbonyl]-L-valyl]amino]butyl]amino]-1-(phenylmethyl)propyl]-N^2-[(phenylmethoxy)-carbonyl]-L-asparaginamide, monohydrochloride], at HIV protease, the inhibition at 10 µM amounted to 100%. In experiment [1], the IC50 is more than 8600 nM.

Take `CC(C)[C@H](NC(=O)OCc1ccccc1)C(=O)N[C@@H](Cc1ccccc1)[C@H](O)CNC[C@@H](O)[C@H](Cc1ccccc1)NC(=O)[C@H](CC(N)=O)NC(=O)OC(C)(C)C` [Compound 121, [S-[1R*,2S*(2S*.3R*)]]-N^2-[(1-Dimethylethoxy)carbonyl]-N-[2-hydroxy-3-[[2-hydroxy-4-phenyl-3-[[N-[(phenylmethoxy)carbonyl]-L-valyl]amino]butyl]amino]-1-(phenylmethyl)-propyl]-L-asparaginamide]: the inhibition at 10 µM on HIV protease was determined as 73%. Further, the IC50 in experiment [1] was more than 300 nM.

Regarding `CC(C)OC(=O)N[C@@H](Cc1ccccc1)[C@H](O)CNC[C@@H](O)[C@H](Cc1ccccc1)NC(=O)OC(C)C` [Compound 123, [R-(R*,S*)]-[Iminobis[2-hydroxy-1-(phenylmethyl)-3.1-propandiyl]biscarbamic acid, bis(1-methylethyl)ester], the inhibition at 10 µM at HIV protease was found to be 65%. Further, in experiment [1], the IC50 amounted to 1000 nM.

On to `CC(C)[C@H](NC(=O)OCc1ccccc1)C(=O)N[C@@H](Cc1ccccc1)[C@H](O)CNC[C@H](O)[C@H](Cc1ccccc1)NC(=O)OC(C)(C)C` [Compound 125, [S-[1R*,2S*(2R*,3R*)]-N-[3-[[3-[[(1,1-Dimethylethoxy)carbonyl]amino]-2-hydroxy-4-phenylbutyl]amino]-2-hydroxy-1-(phenylmethyl)propyl]-N^2 [(phenylmethoxy)carbonyl]-L-valinamide], for which the inhibition at 10 µM on HIV protease is 71%. Moreover, the concentration for half-maximal inhibition (IC50) in experiment [1] is more than 1500 nM.

`CN(C(=O)OC(C)(C)C)[C@@H](Cc1ccccc1)[C@H](O)CNC[C@@H](O)[C@H](Cc1ccccc1)NC(=O)OC(C)(C)C` [Compound 132, [1S-[1R*,2S*(2S*,3R*)]]-3-[[(1,1-Dimethylethoxy)carbonyl]amino]-2-hydroxy-4-phenylbutyl]amino]-2-hydroxy-1-(phenylmethyl)-propyl]methylcarbamic acid, 1,1-dimethylethyl ester]: at HIV protease, the inhibition at 10 µM was 65%. In experiment [1], the IC50 was more than 3000 nM.

Consider `CC(C)[C@H](NC(=O)OCc1ccccc1)C(=O)N(C)[C@@H](Cc1ccccc1)[C@H](O)CNC[C@@H](O)[C@H](Cc1ccccc1)NC(=O)OC(C)(C)C` [Compound 134, [S-[1R*,2S*(2S*,3R*)]]-N-[3-[[3-[[(1,1-Dimethylethoxy)carbonyl]amino]-2-hydroxy-4-phenylbutyl]amino]-2-hydroxy-1-(phenylmethyl)-propyl]-N-methyl-N^2-[(phenylmethoxy)carbonyl]-L-valinamide], for which the inhibition at 10 µM on HIV protease stood at 87%. Further, the IC50 in experiment [1] was more than 5000 nM.

Broadly, the inhibition is how much of the control response was suppressed. In general, IC50 refers to the concentration at which inhibition is half-maximal.
